# Key:
# [1] = tested on: Rat Hepatocytes (rHep); test: Metabolic stability in rat hepatocytes (rHep); format: in vitro ADME; conditions: n = 1 or geometric mean (n = 2-3)
# Protocol: Metabolic stability in rat hepatocytes was measured as described in J Comput Aided Mol Des 2015, 29, 795.
# [2] = target: T1, Prolyl endopeptidase, Prolyl Oligopeptidase (hPREP) (Homo sapiens, UniProt P48147); test: biochemical
# T1 sequence (P48147 1-710): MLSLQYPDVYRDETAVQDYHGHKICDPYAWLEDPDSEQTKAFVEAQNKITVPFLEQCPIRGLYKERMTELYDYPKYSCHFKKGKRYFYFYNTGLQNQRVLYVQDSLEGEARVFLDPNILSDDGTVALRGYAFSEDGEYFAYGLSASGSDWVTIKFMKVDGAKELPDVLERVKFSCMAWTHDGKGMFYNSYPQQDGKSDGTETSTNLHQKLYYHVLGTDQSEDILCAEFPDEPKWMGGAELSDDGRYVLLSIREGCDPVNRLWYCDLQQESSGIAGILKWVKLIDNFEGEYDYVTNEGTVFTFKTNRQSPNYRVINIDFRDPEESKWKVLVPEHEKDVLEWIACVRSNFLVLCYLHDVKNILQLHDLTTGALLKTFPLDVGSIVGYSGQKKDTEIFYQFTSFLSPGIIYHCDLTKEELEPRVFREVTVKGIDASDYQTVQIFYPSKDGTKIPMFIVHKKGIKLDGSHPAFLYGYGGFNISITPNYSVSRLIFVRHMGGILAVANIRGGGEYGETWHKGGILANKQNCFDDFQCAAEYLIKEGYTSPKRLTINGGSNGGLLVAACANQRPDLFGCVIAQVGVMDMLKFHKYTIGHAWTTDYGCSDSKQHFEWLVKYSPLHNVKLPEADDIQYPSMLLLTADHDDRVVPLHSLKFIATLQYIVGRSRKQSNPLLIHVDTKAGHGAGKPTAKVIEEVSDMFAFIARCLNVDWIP
# Protocol: Compounds were tested in a biochemical inhibition assay using Prolyl endopeptidase, Prolyl Oligopeptidase (hPREP) enzyme at 0.6 nM FAC (R&D Systems, 4308-SE) and the substrate Z-Gly-Pro-amino-methylcoumarin (Bachem, I-1145) at 50 μM FAC. 384 Low volume black plates (Greiner #784076) were used. […] Plates were incubated for 15 min at rt in dark. 4 μL, 100 μM substrate solution (25 mM Tris HCl, 250 mM NaCl, 0.01% Triton X-100, 5 mM Glutathione, pH 7.5) was added to each well. Plates were centrifuged at 1000 rpm and incubated for 20 min at rt in dark. The plates were read on a PHERAstar® reader with excitation 340 nm and emission 460 nm. Data were analyzed in Genedata Screener®. IC50 values were determined by plotting % inhibition versus log compound concentration and using a one site dose response model.
# [3] = Kinetic solubility; format: physicochemical; conditions: kinetic from dmso stock, n = 1 or average (n = 2-4)
# Protocol: Kinetic solubility was measured as described in Comput Aided Mol Des 2015, 29, 795.
# [4] = target: T2, hFAP (M39-A757) (Homo sapiens, UniProt Q12884); test: biochemical
# T2 sequence (Q12884 39-757): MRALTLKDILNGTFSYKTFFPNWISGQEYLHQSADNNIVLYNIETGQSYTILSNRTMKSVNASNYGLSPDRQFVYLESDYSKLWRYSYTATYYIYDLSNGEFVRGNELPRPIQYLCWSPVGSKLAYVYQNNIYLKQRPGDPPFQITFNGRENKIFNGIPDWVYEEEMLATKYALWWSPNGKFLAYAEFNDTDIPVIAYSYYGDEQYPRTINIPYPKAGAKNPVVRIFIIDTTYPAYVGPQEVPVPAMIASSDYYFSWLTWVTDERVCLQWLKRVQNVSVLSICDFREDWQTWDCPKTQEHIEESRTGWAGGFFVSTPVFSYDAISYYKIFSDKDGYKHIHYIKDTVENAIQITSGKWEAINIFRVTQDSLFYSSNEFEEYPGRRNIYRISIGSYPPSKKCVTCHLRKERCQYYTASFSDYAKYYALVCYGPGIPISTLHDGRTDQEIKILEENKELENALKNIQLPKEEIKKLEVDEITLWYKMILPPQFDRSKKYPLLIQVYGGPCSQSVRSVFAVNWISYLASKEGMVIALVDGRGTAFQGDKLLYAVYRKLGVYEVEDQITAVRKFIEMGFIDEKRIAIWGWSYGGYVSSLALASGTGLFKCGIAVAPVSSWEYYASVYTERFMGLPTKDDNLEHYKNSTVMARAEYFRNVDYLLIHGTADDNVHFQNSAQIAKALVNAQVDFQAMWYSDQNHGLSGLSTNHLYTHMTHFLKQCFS
# [5] = Metabolic stability in human liver microsomes (HLM); format: in vitro ADME; conditions: n = 1 or average (n = 2-3)
# Protocol: Metabolic stability in HLM was measured as described in J Comput Aided Mol Des 2015, 29, 795.
# [6] = target: T3, hFAP (Homo sapiens, UniProt Q12884); test: biochemical
# T3 sequence (Q12884 38-760): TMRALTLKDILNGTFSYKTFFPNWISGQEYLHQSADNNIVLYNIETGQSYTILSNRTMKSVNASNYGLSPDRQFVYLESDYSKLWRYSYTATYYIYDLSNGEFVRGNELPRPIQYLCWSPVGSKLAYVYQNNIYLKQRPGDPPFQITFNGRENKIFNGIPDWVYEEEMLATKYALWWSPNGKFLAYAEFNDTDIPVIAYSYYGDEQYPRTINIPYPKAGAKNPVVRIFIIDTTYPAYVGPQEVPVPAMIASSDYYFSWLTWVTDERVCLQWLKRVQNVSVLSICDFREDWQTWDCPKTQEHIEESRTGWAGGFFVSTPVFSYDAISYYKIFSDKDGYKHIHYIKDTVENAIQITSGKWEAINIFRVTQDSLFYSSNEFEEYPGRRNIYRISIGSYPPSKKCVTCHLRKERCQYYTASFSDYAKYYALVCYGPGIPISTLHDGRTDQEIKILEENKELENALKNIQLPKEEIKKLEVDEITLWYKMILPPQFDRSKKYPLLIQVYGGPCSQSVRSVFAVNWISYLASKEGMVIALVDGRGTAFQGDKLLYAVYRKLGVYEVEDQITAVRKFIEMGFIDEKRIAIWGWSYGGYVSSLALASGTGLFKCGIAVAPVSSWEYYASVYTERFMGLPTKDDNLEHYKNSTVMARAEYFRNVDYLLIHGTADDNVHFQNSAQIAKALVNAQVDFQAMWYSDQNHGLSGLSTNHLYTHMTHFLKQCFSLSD
# Protocol: 384 low volume black plates (Greiner #784076) were used. 4 μL, 0.48 nM enzyme solution (100 mM Tris HCl, 100 mM NaCl, 0.05% Chaps, pH 7.4) was added to 40 nL compounds (in DMSO) at 10 CR, 3 fold dilution series from 50 μM FAC. Plates were incubated for 15 min at rt in dark. 4 μL, 40 μM substrate solution (100 mM Tris HCl, 100 mM NaCl, 0.05% Chaps, pH 7.4) was added to each well. Plates were centrifuged at 1000 rpm and incubated for 30 min at rt in dark. The plates were read on a PHERAstar® reader with excitation 340 nm and emission 460 nm. Data were analyzed in Genedata Screener®. IC50 values were determined by plotting % inhibition versus log compound concentration and using a one site dose response model.
# [7] = Caco-2 bidirectional (ABBA) permeability; format: in vitro ADME; conditions: human
# Protocol: Caco-2 cell permeability was measured as described in Mol Pharm 2017, 14, 1601.
# 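Throughout, for Kd: surface plasmon resonance direct binding to hFAP amine-coupled on a sensor chip, rising compound concentrations by single cycle kinetics, Kd from global fit of interaction models.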
Structure (SMILES),rHeps CLint [1],IC50 [2],solubility [3],Kd [4],microsomal CLint [5],IC50 [6],"Papp A→B ([7]; A to B, n = 1 or average (n = 2), read-out: Caco2 Bidirectional (ABBA) A to B Papp)","Papp B→A ([7]; B to A, n = 1 or average (n = 2), read-out: Caco2 Bidirectional (ABBA) B to A Papp)",efflux ratio ([7]; read-out: Caco2 Bidirectional (ABBA) Efflux Ratio)
"N#C[C@@H]1CSCN1C(=O)CNC(=O)c1ccnc2ccc(CF)cc12 [Example 29, (R)—N-(2-(4-cyanothiazolidin-3-yl)-2-oxoethyl)-6-(fluoromethyl)-quinoline-4-carboxamide]",12 μL/min/1E6,32 nM,> 1000 µM,1.4 nM,9.8 µL/min/mg,0.52 nM,–,–,–
"Cc1cc(Cc2ccc3nccc(C(=O)NCC(=O)N4CSC[C@H]4C#N)c3c2)n(C)n1 [Example 40, (R)—N-(2-(4-Cyanothiazolidin-3-yl)-2-oxoethyl)-6-((1,3-dimethyl-1H-pyrazol-5-yl)methyl)quinoline-4-carboxamide]",21 μL/min/1E6,600 nM,> 1000 µM,0.13 nM,29 µL/min/mg,0.25 nM,–,–,–
"Cc1cc(Cc2ccc3nccc(C(=O)NCC(=O)N4CSC[C@H]4C#N)c3c2)no1 [Example 42, (R)—N-(2-(4-Cyanothiazolidin-3-yl)-2-oxoethyl)-6-((5-methylisoxazol-3-yl)methyl)quinoline-4-carboxamide]",23 μL/min/1E6,180 nM,190 µM,0.2 nM,12 µL/min/mg,0.27 nM,–,–,–
"Cc1ccc(C2(c3ccc4nccc(C(=O)NCC(=O)N5CSC[C@H]5C#N)c4c3)CC2)cn1 [Example 43, (R)—N-(2-(4-Cyanothiazolidin-3-yl)-2-oxoethyl)-6-(1-(6-methylpyridin-3-yl)cyclopropyl)quinoline-4-carboxamide]",78 μL/min/1E6,370 nM,60 µM,0.39 nM,100 µL/min/mg,0.094 nM,–,–,–
"N#C[C@@H]1CSCN1C(=O)CNC(=O)c1ccnc2ccc(C3(C#N)CCOCC3)cc12 [Example 59, (R)-6-(4-Cyanotetrahydro-2H-pyran-4-yl)-N-(2-(4-cyanothiazolidin-3-yl)-2-oxoethyl)quinoline-4-carboxamide]",20 μL/min/1E6,430 nM,480 µM,–,30 µL/min/mg,–,0.24 ×10⁻⁶ cm/s,21 ×10⁻⁶ cm/s,90
"N#C[C@@H]1CSCN1C(=O)CNC(=O)c1ccnc2ccc(C(F)F)cc12 [Example 71, (R)—N-(2-(4-Cyanothiazolidin-3-yl)-2-oxoethyl)-6-(difluoromethyl)-quinoline-4-carboxamide]",8.7 μL/min/1E6,15 nM,> 1000 µM,0.4 nM,16 µL/min/mg,0.43 nM,–,–,–
"COCCCOc1ccc(-c2ccc3nccc(C(=O)NCC(=O)N4CSC[C@H]4C#N)c3c2)cc1 [Example 72, (R)—N-(2-(4-Cyanothiazolidin-3-yl)-2-oxoethyl)-6-(4-(3-methoxy-propoxy)phenyl)quinoline-4-carboxamide]",18 μL/min/1E6,540 nM,14 µM,0.013 nM,63 µL/min/mg,0.2 nM,–,–,–
"CCOC1(c2ccc3nccc(C(=O)NCC(=O)N4CSC[C@H]4C#N)c3c2)CC1 [Example 76, (R)—N-(2-(4-Cyanothiazolidin-3-yl)-2-oxoethyl)-6-(1-ethoxycyclopropyl)quinoline-4-carboxamide]",34 μL/min/1E6,580 nM,900 µM,2 nM,140 µL/min/mg,1.3 nM,–,–,–
"N#C[C@@H]1CSCN1C(=O)CNC(=O)c1ccnc2ccc(C3CC3)cc12 [Example 77, (R)—N-(2-(4-Cyanothiazolidin-3-yl)-2-oxoethyl)-6-cyclopropylquinoline-4-carboxamide]",44 μL/min/1E6,38 nM,470 µM,1.4 nM,58 µL/min/mg,0.59 nM,–,–,–
